Results from US11878972B2, “Treatment of neurological disorders” (TORQUR AG, priority 2016, dated 2024).
pIC50: −log10 of the molar value.

Assays:
pPKB S473 in A2058 cells = assay: In-cell Western blot, pPKB S473; type: cell-based; conditions: treated for 1 hour, normalized to α-tubulin
Method: (§1) Cells are fixed with 4% paraformaldehyde for 30 minutes at room temperature, washed 2 times with 1% BSA in PBS, permeabilized with 0.1% Triton X-100 in PBS/1% BSA for 30 minutes at room temperature and blocked with 5% goat serum in PBS/1% BSA/0.1% Triton X-100 for 30 minutes at room temperature. […] Cells are washed 3 times 5 minutes with PBS/1% BSA/0.1% triton and plate scanned with the Odyssey Infrared Scanning system using both 700 and 800 nm channels. […] To correct for background staining in the data analysis wells are treated only with secondary antibodies.
(§2) For data analysis the mean background signal from channel 700 nm and 800 nm are subtracted from each signal in channel 700 nm and 800 nm, respectively.
(§3) IC50 values of each compound are determined by plotting the normalized pPBK S473 and pS6 S235/S236 signals, respectively, versus the compound concentrations (in logarithmic scale) and then by fitting a sigmoidal dose-response curve with variable slope to the data using GraphPad™ Prism.

[1] = system: pS6 S235/S236 in A2058 cells; assay: In-cell Western blot, pS6 S235/S236; type: cell-based; conditions: treated for 1 hour, normalized to α-tubulin
Method: as §1, §2, §3

[2] = system: female NMRI mice, nonepileptic (sham-SE) and epileptic (pilo-SE); assay: Maximal electroshock seizure threshold test (MEST); type: in vivo, mouse; conditions: for CC50 / threshold increase: Phenobarbital; for increase of the seizure threshold in MEST: 5 mg/kg rapamycin; for increase of the threshold: rapamycin after intraperitoneal injections
Method: A total of 166 adult female NMRI mice were used obtained from Charles River (Sulzfeld, Germany) at a weight range of 21-25 g (mice). Animals were kept under the following conditions: Housing: Animals were housed in groups of max. 8 mice under controlled conditions (temperature: 22±1° C.; humidity: 50% 60%/), under a 12-h light-dark cycle (lights on at 6:00 a.m.). Feeding: Standard laboratory chow (Altromin 1324 standard diet, Altromin Spezialfutter GmbH, Lage, Germany) was provided ad libitum. Drinking water: Tap water was provided ad libitum.
The MEST determines a population seizure threshold in groups of ˜20 animals and not the threshold for an individual animal. In the present study, the MEST was determined by a staircase procedure as previously described. A stimulator (BMT Medizintechnik, Berlin, Germany) that delivered a constant current (adjustable from 1-200 mA regardless of the impedance of the animal) with sinusoidal pulses (50/sec) for 0.2 sec was used.
Current administration was performed via bilateral transcorneal stimulation (using copper electrodes). Before transcorneal stimulation, a drop of tetracaine solution (2%) was administered to the eyes of the mouse for local anesthesia. Two minutes later, the mouse was restrained by hand to press the copper electrodes on both corneas while the stimulus was applied by stepping on a foot pedal switch connected with the stimulator. Electrodes were covered with soft leather and soaked with saline before each current application. […] The first stimulation was started with a current near to the control threshold.
3 (HCl): 40/100 mg in 10 ml (Suspension; 5% PEG 400 and 2% Tween 80, HPBCD (10%6)) • Cpd. 8 (HCl): 12.5/25 mg in 10 ml (5% PEG 400 and 2% Tween 80, HPBCD (10%))
Statistical analysis were calculated using Student's t-test. All tests were used two-sided; a P<0.05 was considered significant.
We performed no special tests for the determination of adverse effects. Mice were observed about 30 min after injection in their home cages for obvious sedation or reduction of wellbeing. Five minutes before electrical stimulation mice were again observed in their home cages and two minutes before stimulation during handling procedure for treatment with local anaesthesia. Every obvious variation from normal behavior was noted. Only phenobarbital induced noticeable sedation which lasted for more than 60 min. All other test drugs (including vehicle solutions) were tolerated without any obvious adverse effects.

[3] = 50 mg/kg Levetiracetam i.p., pretreatment 1 h

Row | Structure (SMILES) | pIC50 (pPKB S473 in A2058 cells; Homo sapiens) | pIC50 ([1]; Homo sapiens, A2058, 1 h) | pIC50 (pPKB S473 in A2058 cells; Homo sapiens, A2058, 1 h) | further results
1 | C[C@H]1COCCN1c1nc(-c2cnc(N)nc2C(F)F)nc(N2CCOCC2)n1 [Compound 9, (S)-4-(difluoromethyl)-5-(4-(3-methylmorpholino)-6-morpholino-1,3,5-triazin-2-yl)pyrimidin-2-amine] | 7.46 | – | – | pIC50 ([1]; Homo sapiens): 7.14
2 | Nc1cc(C(F)F)c(-c2nc(N3CCNCC3)nc(N3CCOCC3)n2)cn1 [Compound 12, 4-(difluoromethyl)-5-(4-morpholino-6-(piperazin-1-yl)-1,3,5-triazin-2-yl)pyridin-2-amine] | – | – | – | pIC50 (pPKB S473 in A2058 cells): 6.66; pIC50 [1]: 6.39
3 | Nc1ncc(-c2nc(N3CCNCC3)nc(N3CCOCC3)n2)c(C(F)F)n1 [Compound 13, 4-(difluoromethyl)-5-(4-morpholino-6-(piperazin-1-yl)-1,3,5-triazin-2-yl)pyrimidin-2-amine] | – | – | – | pIC50 (pPKB S473 in A2058 cells): 7.43; pIC50 [1]: 6.92
4 | Nc1cc(C(F)F)c(-c2cc(N3CCOCC3)nc(N3CCOCC3)n2)cn1 [Compound 16, 4-(difluoromethyl)-5-(2,6-dimorpholinopyrimidin-4-yl)pyridin-2-amine] | 6.68 | 6.74 | – | –
5 | Nc1ncc(-c2cc(N3CCOCC3)nc(N3CCOCC3)n2)c(C(F)F)n1 [Compound 17, 4′-(difluoromethyl)-2,6-dimorpholino-[4,5′-bipyrimidin]-2′-amine] | – | 6.83 | – | –
6 | Nc1cc(C(F)F)c(-c2nc(N3CCOCC3)cc(N3CCOCC3)n2)cn1 [Compound 18, 4-(difluoromethyl)-5-(4,6-dimorpholinopyrimidin-2-yl)pyridin-2-amine] | 6.61 | 6.59 | – | –
7 | Nc1cc(C(F)F)c(-c2nc(N3CCOCC3)nc(N3CCSCC3)n2)cn1 [Compound 20, 4-(difluoromethyl)-5-(4-morpholino-6-thiomorpholino-1,3,5-triazin-2-Yl)pyridin-2-amine] | – | 6.60 | 6.84 | –
8 | Nc1ncc(-c2nc(N3CCOCC3)nc(N3CCSCC3)n2)c(C(F)F)n1 [Compound 21, 4-(difluoromethyl)-5-(4-morpholino-6-thiomorpholino-1,3,5-triazin-2-yl)pyrimidin-2-amine] | – | 6.67 | 7.24 | –
9 | C[C@H]1COCCN1c1cc(-c2cnc(N)cc2C(F)F)nc(N2CCOCC2)n1 [Compound 27, (S)-4-(difluoromethyl)-5-(6-(3-methylmorpholino)-2-morpholinopyrimidin-4-yl)pyridin-2-amine] | 6.21 | – | – | pIC50 ([1]; Homo sapiens): 6.12
10 | C[C@H]1COCCN1c1nc(-c2cnc(N)cc2C(F)F)cc(N2CCOCC2)n1 [Compound 31, (S)-4-(difluoromethyl)-5-(2-(3-methylmorpholino)-6-morpholinopyrimidin-4-yl)pyridin-2-amine] | 6.84 | – | – | pIC50 ([1]; Homo sapiens): 6.91
11 | C[C@H]1COCCN1c1nc(-c2cnc(N)nc2C(F)F)cc(N2CCOCC2)n1 [Compound 32, (S)-4′-(difluoromethyl)-2-(3-methylmorpholino)-6-morpholino-[4,5′-bipyrimidin]-2′-amine] | 7.00 | – | – | pIC50 ([1]; Homo sapiens): 6.41
12 | CC1(C)COCCN1c1nc(-c2cnc(N)cc2C(F)F)nc(N2CCOCC2(C)C)n1 [Compound 39, 5-[4,6-bis(3,3-dimethylmorpholin-4-yl)-1,3,5-triazin-2-yl]-4-(difluoromethyl)pyridin-2-amine] | – | 7.33 | 6.97 | –
13 | C[C@@H]1COC[C@H](C)N1c1nc(-c2cnc(N)cc2C(F)F)nc(N2[C@H](C)COC[C@@H]2C)n1 [Compound 40, 5-[4,6-bis[(3R,5S)-3,5-dimethylmorpholin-4-yl]-1,3,5-triazin-2-yl]-4-(difluoromethyl)pyridin-2-amine] | 6.60 | – | – | pIC50 ([1]; Homo sapiens): 6.80
14 | C[C@@H]1COCCN1c1nc(-c2cnc(N)cc2C(F)F)nc(N2CCOC[C@H]2C)n1 [Compound 41, 5-[4,6-bis[(3R)-3-methylmorpholin-4-yl]-1,3,5-triazin-2-yl]-4-(difluoromethyl)pyridin-2-amine] | 6.36 | – | – | pIC50 ([1]; Homo sapiens): 6.58
15 | CC1(C)COCCN1c1nc(-c2cnc(N)cc2C(F)F)nc(N2CCOCC2)n1 [Compound 42, 4-(difluoromethyl)-5-[4-(3,3-dimethylmorpholin-4-yl)-6-morpholino-1,3,5-triazin-2-yl]pyridin-2-amine] | – | 7.35 | 7.27 | –
16 | COC[C@@H]1COCCN1c1nc(-c2cnc(N)cc2C(F)F)nc(N2CCOC[C@H]2C)n1 [Compound 46, 4-(difluoromethyl)-5-[4-[(3R)-3-(methoxymethyl)morpholin-4-yl]-6-[(3R)-3-methylmorpholin-4-yl]-1,3,5-triazin-2-yl]pyridin-2-amine] | – | 6.37 | 6.02 | –
17 | C[C@@H]1COCCN1c1nc(-c2cnc(N)cc2C(F)F)nc(N2C3COCC2C3)n1 [Compound 50, 4-(difluoromethyl)-5-[4-[(3R)-3-methylmorpholin-4-yl]-6-(3-oxa-6-azabicyclo[3.1.1]heptan-6-yl)-1,3,5-triazin-2-yl]pyridin-2-amine] | – | 6.39 | 5.81 | –
18 | CC[C@@H]1COCCN1c1nc(-c2cnc(N)cc2C(F)F)nc(N2CCOC[C@H]2CC)n1 [Compound 54, 5-[4,6-bis[(3R)-3-ethylmorpholin-4-yl]-1,3,5-triazin-2-yl]-4-(difluoromethyl)pyridin-2-amine] | – | 6.68 | 6.45 | –
19 | Nc1cc(C(F)F)c(-c2nc(N3CCOCC34CCC4)nc(N3CCOCC34CCC4)n2)cn1 [Compound 55, 5-[4,6-bis(8-oxa-5-azaspiro[3.5]nonan-5-yl)-1,3,5-triazin-2-yl]-4-(difluoromethyl)pyridin-2-amine] | – | 6.28 | 6.03 | –
20 | C[C@@H]1COCCN1c1nc(-c2cnc(N)cc2C(F)F)nc(N2[C@H](C)COC[C@H]2C)n1 [Compound 78, 4-(difluoromethyl)-5-[4-[(3R,5R)-3,5-dimethylmorpholin-4-yl]-6-[(3R)-3-methylmorpholin-4-yl]-1,3,5-triazin-2-yl]pyridin-2-amine] | – | 6.41 | 6.30 | –
21 | C[C@@H]1COCCN1c1nc(-c2cnc(N)cc2C(F)F)nc(N2[C@@H](C)COC[C@@H]2C)n1 [Compound 79, 4-(difluoromethyl)-5-[4-[(3S,5S)-3,5-dimethylmorpholin-4-yl]-6-[(3R)-3-methylmorpholin-4-yl]-1,3,5-triazin-2-yl]pyridin-2-amine] | – | 6.87 | 6.70 | –
22 | C[C@H]1COC[C@H](C)N1c1nc(-c2cnc(N)cc2C(F)F)nc(N2[C@@H](C)COC[C@@H]2C)n1 [Compound 83, 5-[4,6-bis[(3S,5S)-3,5-dimethylmorpholin-4-yl]-1,3,5-triazin-2-yl]-4-(difluoromethyl)pyridin-2-amine] | 6.42 | – | – | pIC50 ([1]; Homo sapiens): 6.53
23 | CC[C@H]1COCCN1c1nc(-c2cnc(N)cc2C(F)F)nc(N2CCOC[C@H]2C)n1 [Compound 85, 4-(difluoromethyl)-5-[4-[(3S)-3-ethylmorpholin-4-yl]-6-[(3R)-3-methylmorpholin-4-yl]-1,3,5-triazin-2-yl]pyridin-2-amine] | – | 6.62 | – | –
24 | CC[C@@H]1COCCN1c1nc(-c2cnc(N)cc2C(F)F)nc(N2CCOC[C@H]2C)n1 [Compound 86, 4-(difluoromethyl)-5-[4-[(3R)-3-ethylmorpholin-4-yl]-6-[(3R)-3-methylmorpholin-4-yl]-1,3,5-triazin-2-yl]pyridin-2-amine] | – | – | 6.64 | –
25 | CC[C@@H](C(N)=O)N1CCCC1=O [Levetiracetam, reference compound] | – | – | – | Threshold difference between nonepileptic and epileptic [2, 3]: −4%; Threshold difference between vehicle and drug threshold, nonepileptic [2, 3]: 21%
26 | CCC1(c2ccccc2)C(=O)NC(=O)NC1=O [Phenobarbital, reference compound] | – | – | – | CC50 ([2]; epileptic mice): 26.56 mA; threshold increase ([2]; epileptic mice): 66%; CC50 ([2]; nonepileptic mice): 25.7 mA; threshold increase ([2]; nonepileptic mice): 69%; duration of noticeable sedation ([2]; mice observed in home cages after injection): more than 60 min
27 | CO[C@H]1C[C@@H]2CC[C@@H](C)[C@@](O)(O2)C(=O)C(=O)N2CCCC[C@H]2C(=O)O[C@H]([C@H](C)C[C@@H]2CC[C@@H](O)[C@H](OC)C2)CC(=O)[C@H](C)/C=C(\C)[C@@H](O)[C@@H](OC)C(=O)[C@H](C)C[C@H](C)/C=C/C=C/C=C/1C [rapamycin, reference compound] | – | – | – | increase of the seizure threshold in MEST ([2]; epileptic mice): 5%; increase of the seizure threshold in MEST ([2]; nonepileptic mice): 13%; increase of the threshold ([2]; epileptic mice): no effect; increase of the threshold ([2]; nonepileptic mice): 20%
